Assay: Anti-oxidation experiment (DPPH free radical removing capability)
Type: biochemical
Protocol: The free radical removing capability was experimented using the embodiment 4 in Table 5. In case of the DPPH (1,1-diphenyl-2-picrylhydrazyl) used, the radical removing capability of radical sample which changes colors depending on the changes in oxidation/reduction environment was confirmed through the measurements of the O.D. value.
In details, the DPPH experiment sample was prepared by inputting the solution of the embodiment 4 in Table 5 into each well of the 96-well plate by 100 μl. The DPPH was added by 10 μl, and the mixture was placed at a room temperature for 30 minutes, and the absorbance at 517 nm was measured using a micro plate reader. At this time, the solution prepared by adding 10% of the distilled water instead of vitamin C into the solution of the embodiment 4 and the pure vitamin C were used as a control group.

O=C1O[C@H]([C@@H](O)CO)C(O)=C1O [Control group 2 (vitamin C), L-ascorbic acid]
effect on the activation of the anti-oxidation (in words): high effect on the activation of the anti-oxidation | Activation (%) of anti-oxidation (room temperature 30 minutes, absorbance at 517 nm): 90.8%

— US20160015619A1, “TRANSPARENT SOL, GEL COMPOSITION CONTAINING HIGH CONCENTRATIONS OF VITAMIN C AND VITAMIN C DERIVATIVE” (ABIO CO., LTD., priority 2013, published 2016)
